The values below come from ChEMBL document CHEMBL5385900, “New insights in the development of positive allosteric modulators of α-amino-3-hydroxy-5-methyl-4-isoxazolepropionic acid (AMPA) receptors belonging to 3,4-dihydro-2H-1,2,4-benzothiadiazine 1,1-dioxides: Introduction of (mono/difluoro)methyl groups at the 2-position of the thiadiazine ring” (Eur J Med Chem, 2023).

For data set [1], the target named is T1, Glutamate receptor ionotropic, AMPA (Rattus norvegicus) (UniProt P19491+P19492+P19493+P19490). The data set can be described thus: Positive allosteric modulation at AMPAR in rat primary cortical cells assessed as concentration required for 2 fold increase in AMPA induced current amplitude by FDSS fluorescence assay. The class given is cell-based. Conditions: Primary cortical neuron, filed as positive allosteric modulator.

For data set [2], the target named is T1, Glutamate receptor ionotropic, AMPA (Rattus norvegicus). Description: Positive allosteric modulation at AMPAR in rat hippocampal assessed as increase in AMPA induced noradrenaline release. Further details: concentration or dose not given beside the values.
The target in data set [3] is Glutamate receptor ionotropic AMPA (Homo sapiens, UniProt P42261+P42262+P42263+P48058). The data set can be described thus: Positive allosteric modulation at AMPAR in HEK293 cells expressing GluA2Q assessed as glutamate induced calcium influx. Format: cell-based.
Data set [4] deals with T1, Glutamate receptor ionotropic, AMPA (Rattus norvegicus). Description: Positive allosteric modulation at AMPAR in rat primary cortical cells assessed as concentration required for 2 fold increase in AMPA induced current amplitude by FlipR assay. Format: cell-based. The following applies: Primary cortical neuron, filed as positive allosteric modulator.
Data set [5] can be described thus: Toxicity in NMR1 mouse assessed as pro-convulsant effect at 30 mg/kg, po. Format: organism-based. Conditions: in vivo.
Data set [6] is described as follows: Toxicity in NMR1 mouse assessed as pro-convulsant effect at 100 mg/kg, po. Format: organism-based. Conditions: in vivo.
Data set [7] has as its system Rattus norvegicus. Description: Cognition enhancing effect in Wistar rat assessed as increase in long-term potentiation of synaptic response at 10 mg/kg, ip pretreated for 1 hr followed by tetanic stimulation and measured for 3 hrs. The following applies: time 4.0 hrs. Format: functional, organism-based.
The subject of data set [8] is Mus musculus. The data set can be described thus: Cognition enhancing effect in CD1 mouse assessed as increase in exploration time for novel object at 1 mg/kg, po after 1 hr by object recognition test (reference value: 40%). Format: functional.
Data set [9] addresses T1, Glutamate receptor ionotropic, AMPA (Rattus norvegicus). The data set can be described thus: Positive allosteric modulation at AMPAR in rat hippocampal assessed as increase in AMPA induced noradrenaline release by measuring concentration required for 2 fold increase in noradrenaline release. Conditions: filed as positive allosteric modulator.
For data set [10], the system named is Mus musculus. The data set can be described thus: Cognition enhancing effect in C57BL/6 mouse assessed as increase in performance of spontaneous alteration at 0.1 mg/kg, ip after 1 hr by T-maze test. Format: functional, organism-based.
In data set [11] the test system is Mus musculus. The data set can be described thus: Cognition enhancing effect in CD1 mouse assessed as increase in exploration time for novel object at 3 mg/kg, po after 1 hr by object recognition test (reference value: 40%). Format: functional.
The target of data set [12] is Glutamate receptor ionotropic AMPA (Homo sapiens) (UniProt P48058+P42263+P42262+P42261). The data set can be described thus: Positive allosteric modulation at AMPAR in HEK293 cells expressing GluA2Q assessed as glutamate induced calcium influx relative to control. Format: cell-based. The following applies: filed as positive allosteric modulator.
In data set [13] the test system is Mus musculus. The data set can be described thus: Cognition enhancing effect in C57BL/6 mouse assessed as increase in performance of spontaneous alteration at 0.3 mg/kg, ip after 1 hr by T-maze test. The class given is functional, organism-based.
The mark [14] stands for this setting: filed as positive allosteric modulator.

Calls of active or inactive are those of the source. The calls are words filed in the database; no cut-off is given here.

On to `CCN1c2ccc(F)cc2S(=O)(=O)N(C)C1C` (centres undefined), for which the EC in data set [1] turned out to be 1.4 µM. For the same molecule, the Activity in [2] (setting [14]) is 135%. Moreover, the EC50 (in general, the concentration needed to bring the measured effect to its halfway point) in [3] was 8.71 µM.

Turning to `CN1CN(C2CC2)c2ccc(F)cc2S1(=O)=O`, the Activity in data set [2] was less than 100%. The EC in data set [4] was determined as 9.3 µM. Moreover, the EC50 in data set [3] was 57.5 µM.

Consider `CN1CN(C2CC2)c2ccc(Cl)cc2S1(=O)=O`, for which the EC in [4] turned out to be 13.4 µM. Further, the EC50 in [3] was more than 100 µM.

Turning to `CC1N(C2CC2)c2ccc(Cl)cc2S(=O)(=O)N1CF` (centres undefined), in data set [2] (setting [14]), the Activity is 329%. The EC in data set [4] came out at 2.5 µM. The EC50 in [3] is 2.14 µM.

Turning to `CC1N(C)c2ccc(F)cc2S(=O)(=O)N1C` (centres undefined), in data set [2] (setting [14]), the Activity is 167%. Also, the EC in data set [4] stood at 4.1 µM. Moreover, in data set [3], the EC50 is 15.1 µM.

For `O=S1(=O)NCN(C2CC2)c2ccc(F)cc21`, the EC was found to be 0.3 µM in data set [1] and 0.2 µM in data set [4]. Moreover, in data set [2] (setting [14]), the Activity is 230%. For the same molecule, the concentration giving a half-maximal response (EC50) in data set [3] was 0.275 µM.

Regarding `O=S1(=O)c2cc(Cl)ccc2N(C2CC2)CN1CF`, the EC in data set [1] turned out to be 1.5 µM; in data set [4], 2.1 µM; in [9], 5 µM. In addition, the Activity in [2] (setting [14]) was 394%; in data set [5], “Non-Toxic”; in data set [6] it was “Non-Toxic”; in data set [8] it was 64%; in data set [11], 78%. For the same molecule, the EC50 in [3] was 2.19 µM. Moreover, the outcome in [7] and in [10] was Active. Also, the Emax (as a rule, the maximal effect, on the per cent scale that the assay sets) in data set [12] is 90%.

Consider `CCN1C(C)N(C)c2ccc(Cl)cc2S1(=O)=O` (centres undefined), for which the EC in data set [1] worked out at 11.2 µM. For the same molecule, the Activity in [2] was less than 100%. Further, the EC50 in data set [3] was more than 100 µM.

`O=S1(=O)c2cc(Cl)ccc2N(C2CC2)CN1C(F)F`: the EC in data set [1] was 6 µM. In data set [2] (setting [14]), the Activity stood at 340%. Also, in data set [3], the half-maximal effective concentration (EC50) was more than 100 µM.

Consider `CCN1c2ccc(Cl)cc2S(=O)(=O)N(CC)C1C` (centres undefined), for which the EC in data set [1] was determined as 12.2 µM. Also, in [2], the Activity is less than 100%. In [3], the EC50 was more than 100 µM.

In the case of `O=S1(=O)c2cc(F)ccc2N(C2CC2)CN1CF`, the Activity in [2] (setting [14]) stood at 427%. Moreover, in data set [4], the EC was determined as 0.6 µM. Moreover, in [3], the EC50 was 0.282 µM.

As to `CC1N(C2CC2)c2ccc(Cl)cc2S(=O)(=O)N1C` (centres undefined), the Activity in data set [2] is less than 100%. For the same molecule, the EC in [4] was 65 µM. Moreover, the EC50 in data set [3] is more than 100 µM.

`CC1N(C)c2ccc(Cl)cc2S(=O)(=O)N1C` (centres undefined): the EC in data set [1] was determined as 0.8 µM; in data set [4], 4.3 µM. Further, the Activity in [2] (setting [14]) was determined as 112%. Further, the EC50 in data set [3] is 81.3 µM.

Consider `CC1N(C2CC2)c2ccc(F)cc2S(=O)(=O)N1C` (centres undefined), for which the Activity in [2] is less than 100%. For the same molecule, in [4], the EC is 70.9 µM. Further, the 50% effective concentration (EC50) in [3] was more than 100 µM.

`O=S1(=O)NCN(C2CC2)c2ccc(Cl)cc21`: the EC worked out at 0.7 µM in data set [1], 2.2 µM in [4] and 4.5 µM in data set [9]. The Activity in data set [2] (setting [14]) was 311%; in data set [5], “Non-Toxic”; in data set [8] it was 82%; in [11], 79%. In addition, the EC50 in data set [3] is 0.794 µM. In addition, the outcome in data set [13] and in data set [7] was Active. Further, the maximal effect (Emax) in data set [12] was 100%.

As for `CCN1c2ccc(Cl)cc2S(=O)(=O)N(C)C1C` (centres undefined), the Activity in [2] (setting [14]) was determined as 103%. In addition, the EC in [4] amounted to 6.2 µM. Besides, the EC50 in data set [3] is 31.6 µM.

Turning to `O=S1(=O)c2cc(F)ccc2N(C2CC2)CN1C(F)F`, the Activity in data set [2] (setting [14]) amounted to 345%. For the same molecule, the EC in [4] was found to be 6.9 µM. Besides, the half-maximal effective concentration (EC50) in [3] is 16.6 µM.
